Results published in US20060069132A1, “Azolecarboxamide herbicides” (priority 2004, published 2006).

Tests used:
wheat = test: Test B postemergence herbicide test; format: in vivo, Triticum aestivum; set-up: key to Wheat plant response rating: 0 = no effect, 100 = complete control; settings: scale 0 (no effect) to 100 (complete control); for Plant response rating, Wheat: Postemergence, 500 g ai/ha, visual rating after 13 to 15 days; for Wheat plant response rating: postemergence, 125 g ai/ha, visual rating
In short: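 Read-out: visual comparison with controls, scored 0 to 100, where 100 means complete control and 0 no effect. Formulated chemicals were applied postemergence to plants 2–18 cm tall (1- to 4-leaf), or to flooded-paddy plants at the 2-leaf stage, then held 13 to 15 days under glass.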

corn = test: Test B pre-/postemergence herbicide test; format: in vivo, Zea mays
In short: (§1)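 Greenhouse pot assay with simultaneous preemergence (treated seed) and postemergence (2–18 cm seedlings) applications of surfactant-containing, non-phytotoxic solvent formulations. Response scored visually 13–15 days later on a 0–100 scale, 100 meaning complete control.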

ducksalad = test: Test B flooded paddy test; format: in vivo, Heteranthera limosa; settings: 1000 g ai/ha, visual rating, scale 0 to 100 (0 no effect, 100 complete control), 13 to 15 days
In short: (§2)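 Scale 0–100: zero equals no visible effect, 100 complete control, judged by eye relative to controls. Timing: 13 to 15 days in greenhouse post-treatment. Growth stage at spraying: two leaves (paddy) or one to four leaves, 2–18 cm (postemergence).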

barnyardgrass [1] = test: Test B flooded paddy test; format: in vivo, Echinochloa crus-galli; settings: 1000 g ai/ha, visual rating, scale 0 to 100 (0 no effect, 100 complete control), 13 to 15 days
In short: as §2

morningglory = test: Test B pre-/postemergence herbicide test; format: in vivo, Ipomoea coccinea; settings: for Morningglory plant response rating: postemergence, visual rating
In short: (§3)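 Formulation: non-phytotoxic solvent mix with surfactant. Timing: preemergence on seed and postemergence on 2–18 cm plants, applied concurrently. Readout after 13–15 d greenhouse: visual 0–100 control rating against controls.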

barnyardgrass [2] = test: Test B pre-/postemergence herbicide test; format: in vivo, Echinochloa crus-galli
In short: as §3

large crabgrass = test: Test B pre-/postemergence herbicide test; format: in vivo, Digitaria sanguinalis
In short: as §1

rice = test: Test B flooded paddy test; format: in vivo, Oryza sativa; settings: 1000 g ai/ha, visual rating, scale 0 to 100 (0 no effect, 100 complete control), 13 to 15 days
In short: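 Greenhouse test; postemergence application to plants at 1–4 leaves (2–18 cm); paddy species at 2 leaves; evaluated visually vs controls at 13–15 days; scale 0–100 (100 = complete control).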

lambsquarters = test: Test B pre-/postemergence herbicide test; format: in vivo, Chenopodium album; settings: for Lambsquarters plant response rating: postemergence, visual rating
In short: as §1

blackgrass = test: Test B postemergence herbicide test; format: in vivo, Alopecurus myosuroides; settings: scale 0 (no effect) to 100 (complete control); for Plant response rating, Blackgrass: Postemergence, 500 g ai/ha, visual rating after 13 to 15 days; for Blackgrass plant response rating: postemergence, 125 g ai/ha, visual rating
In short: as §2

velvetleaf = test: Test B pre-/postemergence herbicide test; format: in vivo, Abutilon theophrasti; settings: for Velvetleaf plant response rating: postemergence, visual rating
In short: as §1

cocklebur = test: Test B pre-/postemergence herbicide test; format: in vivo, Xanthium strumarium
In short: as §3

giant foxtail = test: Test B pre-/postemergence herbicide test; format: in vivo, Setaria faberi
In short: as §1

[3] = test system: small flower umbrella sedge; test: Test B flooded paddy test; format: in vivo, Cyperus difformis; settings: 1000 g ai/ha, visual rating, scale 0 to 100 (0 no effect, 100 complete control), 13 to 15 days
In short: as §2

Surinam grass = test: Test B pre-/postemergence herbicide test; format: in vivo, Urochloa decumbens; settings: for Surinam Grass plant response rating: postemergence, visual rating
In short: as §1

[4] = Postemergence, 500 g ai/ha, visual rating after 13 to 15 days, scale 0 (no effect) to 100 (complete control)
[5] = Preemergence, 500 g ai/ha, scale 0 to 100
[6] = postemergence, 125 g ai/ha, visual rating, scale 0 (no effect) to 100 (complete control)
[7] = preemergence, 125 g ai/ha, 0 to 100 scale, 0 is no effect, 100 is complete control
[8] = 125 g ai/ha, scale 0 (no effect) to 100 (complete control)

CCn1nc(C(C)(C)C)cc1C(=O)Nc1ccc(F)c(C(=O)NCCF)c1 [Compound 60]
Plant response rating, Wheat (wheat): 0
Wheat plant response rating (wheat): 0
Plant response rating, Corn (corn; [4]): 20
Corn plant response rating (corn; [5]): 0
Corn plant response rating (corn; [6]): 10
Plant response rating, Corn (corn; [7]): 0
Ducksalad plant response rating (ducksalad): 70
Barnyardgrass plant response rating (barnyardgrass [1]): 60
Plant response rating, Morningglory (morningglory; [4]): 20
Morningglory plant response rating (morningglory; [8]): 10
Plant response rating, Morningglory (morningglory; [7]): 10
Plant response rating, Barnyardgrass (barnyardgrass [2]; [4]): 10
Barnyardgrass plant response rating (barnyardgrass [2]; [5]): 100
Barnyardgrass plant response rating (barnyardgrass [2]; [6]): 10
Plant response rating, Barnyardgrass (barnyardgrass [2]; [7]): 50
Plant response rating, Crabgrass, Large (large crabgrass; [4]): 20
Crabgrass, Large plant response rating (large crabgrass; [5]): 100
Crabgrass, Large plant response rating (large crabgrass; [6]): 10
Plant response rating, Crabgrass, Large (large crabgrass; [7]): 90
Rice plant response rating (rice): 50
Plant response rating, Lambsquarters (lambsquarters; [4]): 90
Lambsquarters plant response rating (lambsquarters; [8]): 80
Plant response rating, Lambsquarters (lambsquarters; [7]): 90
Plant response rating, Blackgrass (blackgrass): 0
Blackgrass plant response rating (blackgrass): 0
Plant response rating, Velvetleaf (velvetleaf; [4]): 60
Velvetleaf plant response rating (velvetleaf; [8]): 20
Plant response rating, Velvetleaf (velvetleaf; [7]): 10
Plant response rating, Cocklebur (cocklebur; [4]): 70
Cocklebur plant response rating (cocklebur; [5]): 0
Cocklebur plant response rating (cocklebur; [6]): 40
Plant response rating, Cocklebur (cocklebur; [7]): 0
Plant response rating, Foxtail, Giant (giant foxtail; [4]): 20
Foxtail, Giant plant response rating (giant foxtail; [5]): 100
Foxtail, Giant plant response rating (giant foxtail; [6]): 10
Plant response rating, Foxtail, Giant (giant foxtail; [7]): 40
Sedge, Umbrella plant response rating [3]: 60
Plant response rating, Surinam Grass (Surinam grass; [4]): 20
Surinam Grass plant response rating (Surinam grass; [8]): 10
Plant response rating, Surinam Grass (Surinam grass; [7]): 10

CCn1nc(C(C)(C)C)cc1C(=O)Nc1cccc(C(=O)NOC)c1 [Compound 67]
Plant response rating, Wheat (wheat): 10
Wheat plant response rating (wheat): 10
Plant response rating, Corn (corn; [4]): 10
Corn plant response rating (corn; [6]): 10
Plant response rating, Corn (corn; [7]): 0
Ducksalad plant response rating (ducksalad): 80
Barnyardgrass plant response rating (barnyardgrass [1]): 60
Plant response rating, Morningglory (morningglory; [4]): 10
Morningglory plant response rating (morningglory; [8]): 0
Plant response rating, Morningglory (morningglory; [7]): 0
Plant response rating, Barnyardgrass (barnyardgrass [2]; [4]): 10
Barnyardgrass plant response rating (barnyardgrass [2]; [5]): 80
Barnyardgrass plant response rating (barnyardgrass [2]; [6]): 10
Plant response rating, Barnyardgrass (barnyardgrass [2]; [7]): 0
Plant response rating, Crabgrass, Large (large crabgrass; [4]): 10
Crabgrass, Large plant response rating (large crabgrass; [5]): 20
Crabgrass, Large plant response rating (large crabgrass; [6]): 10
Plant response rating, Crabgrass, Large (large crabgrass; [7]): 0
Rice plant response rating (rice): 60
Plant response rating, Lambsquarters (lambsquarters; [4]): 60
Lambsquarters plant response rating (lambsquarters; [8]): 40
Plant response rating, Lambsquarters (lambsquarters; [7]): 0
Plant response rating, Blackgrass (blackgrass): 10
Blackgrass plant response rating (blackgrass): 10
Plant response rating, Velvetleaf (velvetleaf; [4]): 10
Velvetleaf plant response rating (velvetleaf; [8]): 10
Plant response rating, Velvetleaf (velvetleaf; [7]): 0
Plant response rating, Cocklebur (cocklebur; [4]): 70
Cocklebur plant response rating (cocklebur; [5]): 0
Cocklebur plant response rating (cocklebur; [6]): 0
Plant response rating, Cocklebur (cocklebur; [7]): 0
Plant response rating, Foxtail, Giant (giant foxtail; [4]): 10
Foxtail, Giant plant response rating (giant foxtail; [5]): 10
Foxtail, Giant plant response rating (giant foxtail; [6]): 10
Plant response rating, Foxtail, Giant (giant foxtail; [7]): 0
Sedge, Umbrella plant response rating [3]: 80
Plant response rating, Surinam Grass (Surinam grass; [4]): 10
Surinam Grass plant response rating (Surinam grass; [8]): 10
Plant response rating, Surinam Grass (Surinam grass; [7]): 0

CCOC(=O)c1cccc(NC(=O)c2cc(C(C)(C)C)nn2CCF)c1 [Compound 79]
Plant response rating, Wheat (wheat): 40
Wheat plant response rating (wheat): 30
Corn plant response rating (corn; [5]): 0
Plant response rating, Corn (corn; [7]): 0
Ducksalad plant response rating (ducksalad): 80
Barnyardgrass plant response rating (barnyardgrass [1]): 60
Plant response rating, Morningglory (morningglory; [7]): 0
Plant response rating, Barnyardgrass (barnyardgrass [2]; [4]): 40
Barnyardgrass plant response rating (barnyardgrass [2]; [5]): 10
Barnyardgrass plant response rating (barnyardgrass [2]; [6]): 30
Plant response rating, Barnyardgrass (barnyardgrass [2]; [7]): 0
Plant response rating, Crabgrass, Large (large crabgrass; [4]): 30
Crabgrass, Large plant response rating (large crabgrass; [5]): 0
Crabgrass, Large plant response rating (large crabgrass; [6]): 20
Plant response rating, Crabgrass, Large (large crabgrass; [7]): 0
Rice plant response rating (rice): 70
Plant response rating, Lambsquarters (lambsquarters; [4]): 80
Lambsquarters plant response rating (lambsquarters; [8]): 70
Plant response rating, Lambsquarters (lambsquarters; [7]): 0
Plant response rating, Blackgrass (blackgrass): 30
Blackgrass plant response rating (blackgrass): 20
Plant response rating, Velvetleaf (velvetleaf; [4]): 80
Velvetleaf plant response rating (velvetleaf; [8]): 70
Plant response rating, Velvetleaf (velvetleaf; [7]): 10
Plant response rating, Cocklebur (cocklebur; [4]): 80
Cocklebur plant response rating (cocklebur; [5]): 0
Cocklebur plant response rating (cocklebur; [6]): 80
Plant response rating, Cocklebur (cocklebur; [7]): 0
Plant response rating, Foxtail, Giant (giant foxtail; [4]): 40
Foxtail, Giant plant response rating (giant foxtail; [5]): 10
Foxtail, Giant plant response rating (giant foxtail; [6]): 30
Plant response rating, Foxtail, Giant (giant foxtail; [7]): 10
Sedge, Umbrella plant response rating [3]: 90
Plant response rating, Surinam Grass (Surinam grass; [4]): 40
Surinam Grass plant response rating (Surinam grass; [8]): 30
Plant response rating, Surinam Grass (Surinam grass; [7]): 0

CCn1nc(C(C)(C)C)cc1C(=O)Nc1cccc(C(=O)OC)c1 [Compound 81]
Plant response rating, Wheat (wheat): 40
Wheat plant response rating (wheat): 20
Plant response rating, Corn (corn; [4]): 30
Corn plant response rating (corn; [5]): 0
Corn plant response rating (corn; [6]): 10
Plant response rating, Corn (corn; [7]): 0
Ducksalad plant response rating (ducksalad): 80
Barnyardgrass plant response rating (barnyardgrass [1]): 50
Plant response rating, Morningglory (morningglory; [4]): 30
Morningglory plant response rating (morningglory; [8]): 0
Plant response rating, Morningglory (morningglory; [7]): 10
Plant response rating, Barnyardgrass (barnyardgrass [2]; [4]): 90
Barnyardgrass plant response rating (barnyardgrass [2]; [5]): 60
Barnyardgrass plant response rating (barnyardgrass [2]; [6]): 70
Plant response rating, Barnyardgrass (barnyardgrass [2]; [7]): 10
Plant response rating, Crabgrass, Large (large crabgrass; [4]): 20
Crabgrass, Large plant response rating (large crabgrass; [5]): 10
Crabgrass, Large plant response rating (large crabgrass; [6]): 10
Plant response rating, Crabgrass, Large (large crabgrass; [7]): 0
Rice plant response rating (rice): 60
Plant response rating, Lambsquarters (lambsquarters; [4]): 50
Lambsquarters plant response rating (lambsquarters; [8]): 0
Plant response rating, Lambsquarters (lambsquarters; [7]): 0
Plant response rating, Blackgrass (blackgrass): 20
Blackgrass plant response rating (blackgrass): 0
Plant response rating, Velvetleaf (velvetleaf; [4]): 90
Velvetleaf plant response rating (velvetleaf; [8]): 80
Plant response rating, Velvetleaf (velvetleaf; [7]): 0
Plant response rating, Cocklebur (cocklebur; [4]): 90
Cocklebur plant response rating (cocklebur; [5]): 0
Cocklebur plant response rating (cocklebur; [6]): 70
Plant response rating, Cocklebur (cocklebur; [7]): 0
Plant response rating, Foxtail, Giant (giant foxtail; [4]): 50
Foxtail, Giant plant response rating (giant foxtail; [5]): 60
Foxtail, Giant plant response rating (giant foxtail; [6]): 20
Plant response rating, Foxtail, Giant (giant foxtail; [7]): 10
Sedge, Umbrella plant response rating [3]: 80
Plant response rating, Surinam Grass (Surinam grass; [4]): 60
Surinam Grass plant response rating (Surinam grass; [8]): 40
Plant response rating, Surinam Grass (Surinam grass; [7]): 0

C#CCOC(=O)c1cccc(NC(=O)c2cc(C(C)(C)C)nn2CC)c1 [Compound 84]
Plant response rating, Wheat (wheat): 30
Wheat plant response rating (wheat): 20
Plant response rating, Corn (corn; [4]): 20
Corn plant response rating (corn; [5]): 0
Corn plant response rating (corn; [6]): 10
Plant response rating, Corn (corn; [7]): 0
Ducksalad plant response rating (ducksalad): 20
Barnyardgrass plant response rating (barnyardgrass [1]): 10
Plant response rating, Morningglory (morningglory; [4]): 60
Morningglory plant response rating (morningglory; [8]): 30
Plant response rating, Morningglory (morningglory; [7]): 0
Plant response rating, Barnyardgrass (barnyardgrass [2]; [4]): 40
Barnyardgrass plant response rating (barnyardgrass [2]; [5]): 0
Barnyardgrass plant response rating (barnyardgrass [2]; [6]): 20
Plant response rating, Barnyardgrass (barnyardgrass [2]; [7]): 0
Plant response rating, Crabgrass, Large (large crabgrass; [4]): 50
Crabgrass, Large plant response rating (large crabgrass; [5]): 0
Crabgrass, Large plant response rating (large crabgrass; [6]): 20
Plant response rating, Crabgrass, Large (large crabgrass; [7]): 0
Rice plant response rating (rice): 0
Plant response rating, Lambsquarters (lambsquarters; [4]): 60
Lambsquarters plant response rating (lambsquarters; [8]): 0
Plant response rating, Lambsquarters (lambsquarters; [7]): 0
Plant response rating, Blackgrass (blackgrass): 10
Blackgrass plant response rating (blackgrass): 0
Plant response rating, Velvetleaf (velvetleaf; [4]): 100
Velvetleaf plant response rating (velvetleaf; [8]): 60
Plant response rating, Velvetleaf (velvetleaf; [7]): 0
Plant response rating, Cocklebur (cocklebur; [4]): 100
Cocklebur plant response rating (cocklebur; [6]): 20
Plant response rating, Cocklebur (cocklebur; [7]): 0
Plant response rating, Foxtail, Giant (giant foxtail; [4]): 10
Foxtail, Giant plant response rating (giant foxtail; [5]): 0
Foxtail, Giant plant response rating (giant foxtail; [6]): 10
Plant response rating, Foxtail, Giant (giant foxtail; [7]): 0
Sedge, Umbrella plant response rating [3]: 70
Plant response rating, Surinam Grass (Surinam grass; [4]): 60
Surinam Grass plant response rating (Surinam grass; [8]): 50
Plant response rating, Surinam Grass (Surinam grass; [7]): 0
